Experimental data published in patent US20140045873A1, “NOVEL MICROBIOCIDES” (SYNGENTA PARTICIPATIONS AG, priority 2010, published 2014).

test system: Botryotinia fuckeliana (Botrytis cinerea); test: Botryotinia fuckeliana (Botrytis cinerea) / liquid culture (gray mould); type: cell-based; conditions: Vogels broth, 24° C., 3-4 days after application, read-out: control of Botryotinia fuckeliana (inhibition of growth, photometric)
Text: Botryotinia Fuckeliana (Botrytis cinerea)/Liquid Culture (Gray Mould): Conidia of the fungus from cryogenic storage were directly mixed into nutrient broth (Vogels broth). […].45

Compound | inhibition at 200 ppm [%]
C/C(=N\OCCCc1ccnc(-c2cccc(C)n2)n1)c1cccc(C)n1 [P.45, E-1-(6-methyl-2-pyridyl)-N-[3-[2-(6-methyl-2-pyridyl)pyrimidin-4-yl]propoxy]ethanimine] | ≥ 80

test system: Glomerella lagenarium (Colletotrichum lagenarium); test: Glomerella lagenarium (Colletotrichum lagenarium) / liquid culture (anthracnose); type: cell-based; conditions: Colletotrichum orbiculare, read-out: control of Glomerella lagenarium (inhibition of growth, photometric)

Compound | inhibition at 200 ppm [%]
C/C(=N\OCCCc1cccc(-c2nccc(C)n2)n1)c1cccc(C)n1 [P.02] | ≥ 80

same assay, conditions: Colletotrichum orbiculare; 200 ppm, liquid culture, PDB, 24° C., 3-4 days after application; read-out: control of Glomerella lagenarium (inhibition of growth, photometric)

Compound | inhibition at 200 ppm [%]
C/C(=N\OCCCc1cccc(-c2nc(C)cc(C)n2)n1)c1cccc(C)n1 [P.05] | ≥ 80
C/C(=N\OCCCc1cccc(-c2cc(Br)cc(C)n2)n1)c1cccc(C)n1 [P.18] | ≥ 80
C/C(=N\OCCCc1ccnc(-c2cccc(C)n2)n1)c1cccc(C)n1 [P.45, E-1-(6-methyl-2-pyridyl)-N-[3-[2-(6-methyl-2-pyridyl)pyrimidin-4-yl]propoxy]ethanimine] | ≥ 80

test system: Mycosphaerella arachidis (Cercospora arachidicola); test: Mycosphaerella arachidis (Cercospora arachidicola) / liquid culture (early leaf spot); type: cell-based; conditions: 200 ppm, liquid culture, PDB, 24° C., 4-5 days after application, read-out: control of Mycosphaerella arachidis (inhibition of growth, photometric)

Compound | inhibition at 200 ppm [%]
C/C(=N\OCCCc1cccc(-c2nc(C)cc(C)n2)n1)c1cccc(C)n1 [P.05] | ≥ 80
C/C(=N\OCCCc1cccc(-c2cc(Br)cc(C)n2)n1)c1cccc(C)n1 [P.18] | ≥ 80
C/C(=N\OCCCc1cccc(-c2cc(C)cc(C)n2)n1)c1cccc(C)n1 [P.19] | ≥ 80
C/C(=N\OCCCc1ccnc(-c2cccc(C)n2)n1)c1cccc(C)n1 [P.45, E-1-(6-methyl-2-pyridyl)-N-[3-[2-(6-methyl-2-pyridyl)pyrimidin-4-yl]propoxy]ethanimine] | ≥ 80

same assay, conditions: read-out: control of Mycosphaerella arachidis (inhibition of growth, photometric)

Compound | inhibition at 200 ppm [%]
C/C(=N\OCCCc1cccc(-c2nccc(C)n2)n1)c1cccc(C)n1 [P.02] | ≥ 80

test system: Mycosphaerella graminicola (Septoria tritici); test: Mycosphaerella graminicola (Septoria tritici) / liquid culture (Septoria blotch); type: cell-based; conditions: Zymoseptoria tritici, read-out: control of Mycosphaerella graminicola (inhibition of growth, photometric)

Compound | inhibition at 200 ppm [%]
C/C(=N\OCCCc1cccc(-c2nccc(C)n2)n1)c1cccc(C)n1 [P.02] | ≥ 80

same assay, conditions: Zymoseptoria tritici; 200 ppm, liquid culture, PDB, 24° C., 4-5 days after application; read-out: control of Mycosphaerella graminicola (inhibition of growth, photometric)

Compound | inhibition at 200 ppm [%]
C/C(=N\OCCCc1cccc(-c2nc(C)cc(C)n2)n1)c1cccc(C)n1 [P.05] | ≥ 80
C/C(=N\OCCCc1cccc(-c2cc(Br)cc(C)n2)n1)c1cccc(C)n1 [P.18] | ≥ 80
C/C(=N\OCCCc1cccc(-c2cc(C)cc(C)n2)n1)c1cccc(C)n1 [P.19] | ≥ 80
C/C(=N\OCCCc1ccnc(-c2cccc(C)n2)n1)c1cccc(C)n1 [P.45, E-1-(6-methyl-2-pyridyl)-N-[3-[2-(6-methyl-2-pyridyl)pyrimidin-4-yl]propoxy]ethanimine] | ≥ 80

test system: Gaeumannomyces graminis; test: Gaeumannomyces graminis / liquid culture (take-all of cereals); type: cell-based; conditions: 200 ppm, liquid culture, PDB, 24° C., 4-5 days after application, read-out: control of Gaeumannomyces graminis (inhibition of growth, photometric)

Compound | inhibition at 200 ppm [%]
C/C(=N\OCCCc1cccc(-c2nc(C)cc(C)n2)n1)c1cccc(C)n1 [P.05] | ≥ 80
C/C(=N\OCCCc1cccc(-c2cc(Br)cc(C)n2)n1)c1cccc(C)n1 [P.18] | ≥ 80
C/C(=N\OCCCc1cccc(-c2cc(C)cc(C)n2)n1)c1cccc(C)n1 [P.19] | ≥ 80

same assay, conditions: read-out: control of Gaeumannomyces graminis (inhibition of growth, photometric)

Compound | inhibition at 200 ppm [%]
C/C(=N\OCCCc1cccc(-c2nccc(C)n2)n1)c1cccc(C)n1 [P.02] | ≥ 80

test system: Monographella nivalis (Microdochium nivale); test: Monographella nivalis (Microdochium nivale) / liquid culture (foot rot cereals); type: cell-based; conditions: PDB, 24° C., 4-5 days after application, read-out: control of Monographella nivalis (inhibition of growth, photometric)

Compound | inhibition at 200 ppm [%]
C/C(=N\OCCCc1cccc(-c2cc(Br)cc(C)n2)n1)c1cccc(C)n1 [P.18] | ≥ 80
C/C(=N\OCCCc1ccnc(-c2cccc(C)n2)n1)c1cccc(C)n1 [P.45, E-1-(6-methyl-2-pyridyl)-N-[3-[2-(6-methyl-2-pyridyl)pyrimidin-4-yl]propoxy]ethanimine] | ≥ 80

test system: Pythium ultimum; test: Pythium ultimum / liquid culture (seedling damping off); type: cell-based; conditions: Globisporangium ultimum, potato dextrose broth, 24° C., 2-3 days after application, read-out: control of Pythium ultimum (inhibition of growth, photometric)

Compound | inhibition at 200 ppm [%]
C/C(=N\OCCCc1cccc(-c2nc(C)cc(C)n2)n1)c1cccc(C)n1 [P.05] | ≥ 80
C/C(=N\OCCCc1cccc(-c2cc(Br)cc(C)n2)n1)c1cccc(C)n1 [P.18] | ≥ 80
C/C(=N\OCCCc1cccc(-c2cc(C)cc(C)n2)n1)c1cccc(C)n1 [P.19] | ≥ 80
C/C(=N\OCCCc1ccnc(-c2cccc(C)n2)n1)c1cccc(C)n1 [P.45, E-1-(6-methyl-2-pyridyl)-N-[3-[2-(6-methyl-2-pyridyl)pyrimidin-4-yl]propoxy]ethanimine] | ≥ 80

test system: Pyrenophora teres; test: not given; conditions: in Hordeum vulgare, foliar, read-out: control of Pyrenophora teres (disease control compared to untreated)

Compound | pest or weed control at 200 ppm [%]
C/C(=N\OCCCc1cccc(-c2nccc(C)n2)n1)c1cccc(C)n1 [P.02] | ≥ 80
C/C(=N\OCCCc1cccc(-c2nc(C)cc(C)n2)n1)c1cccc(C)n1 [P.05] | ≥ 80
C/C(=N\OCCCc1cccc(-c2cc(Br)cc(C)n2)n1)c1cccc(C)n1 [P.18] | ≥ 80
C/C(=N\OCCCc1cccc(-c2cc(C)cc(C)n2)n1)c1cccc(C)n1 [P.19] | ≥ 80
C/C(=N\OCCCc1ccnc(-c2cccc(C)n2)n1)c1cccc(C)n1 [P.45, E-1-(6-methyl-2-pyridyl)-N-[3-[2-(6-methyl-2-pyridyl)pyrimidin-4-yl]propoxy]ethanimine] | ≥ 80

test system: Puccinia recondita f. sp. tritici; test: not given; conditions: in Triticum aestivum, foliar, read-out: control of Puccinia recondita f. sp. tritici (percent disease control compared to untreated)

Compound | pest or weed control at 200 ppm [%]
C/C(=N\OCCCc1cccc(-c2nccc(C)n2)n1)c1cccc(C)n1 [P.02] | ≥ 80
C/C(=N\OCCCc1cccc(-c2nc(C)cc(C)n2)n1)c1cccc(C)n1 [P.05] | ≥ 80
C/C(=N\OCCCc1cccc(-c2cc(Br)cc(C)n2)n1)c1cccc(C)n1 [P.18] | ≥ 80
C/C(=N\OCCCc1cccc(-c2cc(C)cc(C)n2)n1)c1cccc(C)n1 [P.19] | ≥ 80
C/C(=N\OCCCc1ccnc(-c2cccc(C)n2)n1)c1cccc(C)n1 [P.45, E-1-(6-methyl-2-pyridyl)-N-[3-[2-(6-methyl-2-pyridyl)pyrimidin-4-yl]propoxy]ethanimine] | ≥ 80

test system: Puccinia recondita f. sp. tritici; test: not given; conditions: in Triticum aestivum, foliar, read-out: control of Puccinia recondita f. sp. tritici (percent disease control compared to untreated); remark: another data set of the same source

Compound | pest or weed control at 200 ppm [%]
C/C(=N\OCCCc1cccc(-c2nccc(C)n2)n1)c1cccc(C)n1 [P.02] | ≥ 80
C/C(=N\OCCCc1cccc(-c2nc(C)cc(C)n2)n1)c1cccc(C)n1 [P.05] | ≥ 80
C/C(=N\OCCCc1cccc(-c2cc(Br)cc(C)n2)n1)c1cccc(C)n1 [P.18] | ≥ 80
C/C(=N\OCCCc1cccc(-c2cc(C)cc(C)n2)n1)c1cccc(C)n1 [P.19] | ≥ 80
C/C(=N\OCCCc1ccnc(-c2cccc(C)n2)n1)c1cccc(C)n1 [P.45, E-1-(6-methyl-2-pyridyl)-N-[3-[2-(6-methyl-2-pyridyl)pyrimidin-4-yl]propoxy]ethanimine] | ≥ 80

test system: Thanatephorus cucumeris (Rhizoctonia solani); test: not given; conditions: read-out: control of Thanatephorus cucumeris (inhibition of growth, photometric)

Compound | inhibition at 200 ppm [%]
C/C(=N\OCCCc1cccc(-c2nccc(C)n2)n1)c1cccc(C)n1 [P.02] | ≥ 80
C/C(=N\OCCCc1cccc(-c2nc(C)cc(C)n2)n1)c1cccc(C)n1 [P.05] | ≥ 80
C/C(=N\OCCCc1ccnc(-c2cccc(C)n2)n1)c1cccc(C)n1 [P.45, E-1-(6-methyl-2-pyridyl)-N-[3-[2-(6-methyl-2-pyridyl)pyrimidin-4-yl]propoxy]ethanimine] | ≥ 80

test system: Phaeosphaeria nodorum (Septoria nodorum); test: not given; conditions: Parastagonospora nodorum, in Triticum aestivum, foliar, read-out: control of Phaeosphaeria nodorum (percent disease control compared to untreated)

Compound | pest or weed control at 200 ppm [%]
C/C(=N\OCCCc1cccc(-c2nccc(C)n2)n1)c1cccc(C)n1 [P.02] | ≥ 80
C/C(=N\OCCCc1cccc(-c2nc(C)cc(C)n2)n1)c1cccc(C)n1 [P.05] | ≥ 80
C/C(=N\OCCCc1cccc(-c2cc(Br)cc(C)n2)n1)c1cccc(C)n1 [P.18] | ≥ 80
C/C(=N\OCCCc1cccc(-c2cc(C)cc(C)n2)n1)c1cccc(C)n1 [P.19] | ≥ 80
C/C(=N\OCCCc1ccnc(-c2cccc(C)n2)n1)c1cccc(C)n1 [P.45, E-1-(6-methyl-2-pyridyl)-N-[3-[2-(6-methyl-2-pyridyl)pyrimidin-4-yl]propoxy]ethanimine] | ≥ 80
